Experimental data reported in US5610174A, “Use of α1A -selective adrenoceptor agonists for the treatment of urinary incontinence” (priority 1995, dated 1997).
Read-outs that look alike come from different tables or passages of the source.

Legend:
human α2C adrenoceptor = target: T1, human α2C adrenoceptor (Homo sapiens, UniProt P18825); assay: Radioligand binding ([3H]rauwolscine) at cloned human α2C
T1 construct: expressed in transfected cells; host or cells: LM(tk-)
T1 sequence (P18825 1-462): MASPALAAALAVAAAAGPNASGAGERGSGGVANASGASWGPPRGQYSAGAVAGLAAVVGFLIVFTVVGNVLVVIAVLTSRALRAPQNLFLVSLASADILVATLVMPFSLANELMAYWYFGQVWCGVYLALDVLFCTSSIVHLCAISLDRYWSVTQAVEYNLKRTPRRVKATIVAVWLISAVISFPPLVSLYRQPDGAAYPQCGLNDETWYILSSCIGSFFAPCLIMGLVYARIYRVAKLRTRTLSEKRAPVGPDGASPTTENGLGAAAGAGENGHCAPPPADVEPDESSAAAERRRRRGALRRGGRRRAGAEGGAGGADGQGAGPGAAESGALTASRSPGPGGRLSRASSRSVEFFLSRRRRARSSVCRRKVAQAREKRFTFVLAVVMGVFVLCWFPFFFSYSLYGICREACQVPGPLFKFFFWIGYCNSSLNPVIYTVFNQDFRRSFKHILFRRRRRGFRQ
Protocol: To determine the affinity of compounds at the α2 receptors, LM(tk-) cell lines stably transfected with the genes encoding the α2A, α2B, and α2C receptors were used. Cell lysates were prepared as described above (see Radioligand Binding Assays), and suspended in 25 mM glycylglycine buffer (pH 7.6 at room temperature). Equilibrium competition binding assays were performed using [^3 H] rauwolscine (0.5 nM), and nonspecific binding was determined by incubation with 10 μM phentolamine. The bound radioligand was separated by filtration through GF/B filters using a cell harvester.

[1] = target: T2, human dopamine D5 receptor (Homo sapiens, UniProt P21918); assay: Radioligand binding at human dopamine D5
T2 construct: expressed in transfected cells
T2 sequence (P21918 whole entry): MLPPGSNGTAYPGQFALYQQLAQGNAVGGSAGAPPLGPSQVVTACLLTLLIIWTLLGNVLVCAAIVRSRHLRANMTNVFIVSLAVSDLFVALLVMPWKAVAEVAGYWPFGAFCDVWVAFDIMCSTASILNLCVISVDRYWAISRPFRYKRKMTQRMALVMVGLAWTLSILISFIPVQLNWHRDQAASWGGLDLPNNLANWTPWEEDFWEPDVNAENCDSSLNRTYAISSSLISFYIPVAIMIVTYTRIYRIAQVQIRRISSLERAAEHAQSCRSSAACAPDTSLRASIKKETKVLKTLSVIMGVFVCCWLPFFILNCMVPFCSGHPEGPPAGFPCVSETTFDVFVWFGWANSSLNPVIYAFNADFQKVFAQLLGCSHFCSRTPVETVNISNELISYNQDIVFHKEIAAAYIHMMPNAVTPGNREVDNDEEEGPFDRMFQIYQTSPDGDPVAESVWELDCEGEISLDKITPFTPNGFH
Protocol: (§1) Other Dopamine receptors were prepared by known methods. (D1 : Dearry et al., Nature, 347, 72, (1990), deposited with the European Molecular Biological Laboratory (EMBL) Genbank as X55760; D3 : Sokoloff, P. et al., Nature, 347, 146 (1990), deposited with the European Molecular Biological Laboratory (EMBL) Genbank as X53944; D5 : Sunahara, R. K., et al., Nature, 350, 614 (1991), deposited with EMBL Genbank as X58454-HU HD 5DR).

[2] = target: T3, human dopamine D1 receptor (Homo sapiens, UniProt P21728); assay: Radioligand binding at human dopamine D1; settings: for Ki: read-out: pKi D1 (converted)
T3 construct: expressed in transfected cells
T3 sequence (P21728 whole entry): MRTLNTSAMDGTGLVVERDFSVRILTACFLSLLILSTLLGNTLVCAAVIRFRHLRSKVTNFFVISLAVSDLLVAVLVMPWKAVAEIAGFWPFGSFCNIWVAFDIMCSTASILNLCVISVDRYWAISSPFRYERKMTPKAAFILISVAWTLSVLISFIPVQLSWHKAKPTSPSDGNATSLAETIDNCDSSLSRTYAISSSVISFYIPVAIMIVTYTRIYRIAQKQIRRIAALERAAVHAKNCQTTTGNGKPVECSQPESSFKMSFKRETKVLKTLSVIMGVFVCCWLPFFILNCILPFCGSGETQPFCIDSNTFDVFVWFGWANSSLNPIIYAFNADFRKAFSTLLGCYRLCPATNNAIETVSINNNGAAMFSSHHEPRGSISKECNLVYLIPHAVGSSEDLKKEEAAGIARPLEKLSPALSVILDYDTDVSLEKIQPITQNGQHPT
Protocol: as §1

human 5-HT7 receptor = target: T4, human 5-HT7 receptor (Homo sapiens, UniProt P34969); assay: Radioligand binding at human 5-HT7
T4 construct: expressed in transfected cells; host or cells: LM(tk-) clonal cell line, designated L-5-HT-4B, ATCC CRL 11166 (cell lysates)
T4 sequence (P34969 1-445 isoform P34969-2): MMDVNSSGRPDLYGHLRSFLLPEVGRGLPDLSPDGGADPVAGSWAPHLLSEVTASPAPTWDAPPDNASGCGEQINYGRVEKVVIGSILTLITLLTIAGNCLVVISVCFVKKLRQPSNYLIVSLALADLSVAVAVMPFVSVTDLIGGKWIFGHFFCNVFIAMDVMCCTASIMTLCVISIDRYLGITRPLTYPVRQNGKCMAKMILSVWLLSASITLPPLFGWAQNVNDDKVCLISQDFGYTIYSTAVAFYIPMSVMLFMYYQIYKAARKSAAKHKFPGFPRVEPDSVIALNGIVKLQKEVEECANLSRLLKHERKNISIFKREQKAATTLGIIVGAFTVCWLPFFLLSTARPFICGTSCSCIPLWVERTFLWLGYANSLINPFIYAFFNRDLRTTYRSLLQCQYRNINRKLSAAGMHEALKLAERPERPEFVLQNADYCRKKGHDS
Protocol: (§2) Human Serotonin Receptors
(§3) 5-HT1Dα, 5-HT1Dβ, 5-HT1E, 5-HT1F, and 5-HT7 Receptors: The cell lysates of LM(tk-) clonal cell line stably transfected with the genes encoding each of these 5-HT receptor-subtypes were prepared as described above. The cell line for the 5-HT1Dαreceptor, designated as Ltk-8-30-84, was deposited on Apr. […] The cell for the 5-HT1Dβ receptor, designated as Ltk-11, was deposited on Apr. […] The cell line for the 5-HT1E receptor, designated 5-HT1E -7, was deposited on Nov. […] The cell line for the 5-HT1F receptor, designated L-5-HT1F, was deposited on Dec. […] The cell line for the 5-HT7 receptor, designated as L-5-HT-4B, was deposited on Oct. […] These preparations were suspended in 50 mM Tris-HCl buffer (pH 7.4 at 37° C.) containing 10 mM MgCl2, 0.2 mM EDTA, 10 μM pargyline, and 0.1% ascorbate. […] Nonspecific binding was determined in the presence of 10 μM serotonin. The bound radioligand was separated by filtration through GF/B filters using a cell harvester.

human 5-HT1Dα receptor = target: T5, human 5-HT1Dα receptor (Homo sapiens, UniProt P28221); assay: Radioligand binding at human 5-HT1Dα
T5 construct: expressed in transfected cells; host or cells: LM(tk-) clonal cell line, designated Ltk-8-30-84, ATCC CRL 10421 (cell lysates)
T5 sequence (P28221 whole entry): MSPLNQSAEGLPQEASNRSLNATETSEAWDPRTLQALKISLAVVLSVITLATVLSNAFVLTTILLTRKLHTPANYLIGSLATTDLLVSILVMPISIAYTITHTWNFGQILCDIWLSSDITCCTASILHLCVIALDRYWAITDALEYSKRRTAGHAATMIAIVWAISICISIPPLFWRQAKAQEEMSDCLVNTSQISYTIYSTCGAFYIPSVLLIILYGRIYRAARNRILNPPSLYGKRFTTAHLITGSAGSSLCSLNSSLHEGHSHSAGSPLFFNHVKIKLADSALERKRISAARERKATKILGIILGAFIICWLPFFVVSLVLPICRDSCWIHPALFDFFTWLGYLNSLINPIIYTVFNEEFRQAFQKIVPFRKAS
Protocol: as §2, §3

[3] = target: T6, dog BN, female (α1-adrenoceptor) (Canis lupus, UniProt A0A8I3NK63); assay: Contractile study in isolated female dog bladder neck; settings: for pEC50 Bladder Neck: agonist contraction; for pEC50 Bladder Neck / sensitivity of the contraction to prazosin, bladder neck: female dog bladder neck
T6 sequence (A0A8I3NK63 1-466): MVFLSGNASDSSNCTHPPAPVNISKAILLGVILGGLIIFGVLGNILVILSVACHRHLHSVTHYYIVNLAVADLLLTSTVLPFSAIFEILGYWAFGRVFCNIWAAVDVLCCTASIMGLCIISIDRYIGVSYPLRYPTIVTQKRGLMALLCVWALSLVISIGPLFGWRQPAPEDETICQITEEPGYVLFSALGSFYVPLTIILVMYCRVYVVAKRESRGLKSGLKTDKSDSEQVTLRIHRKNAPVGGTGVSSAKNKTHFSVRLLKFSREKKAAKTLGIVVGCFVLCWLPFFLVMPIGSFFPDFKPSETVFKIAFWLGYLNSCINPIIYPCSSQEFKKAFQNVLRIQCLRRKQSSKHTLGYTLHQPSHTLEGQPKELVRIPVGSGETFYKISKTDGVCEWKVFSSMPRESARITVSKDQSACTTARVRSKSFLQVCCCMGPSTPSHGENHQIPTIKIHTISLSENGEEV
From the text: In addition, similar studies were done using bladder neck tissue from female dogs. In order to identify the specific receptor subtype in each tissue, the pharmacological profile was compared to the profiles for these same drugs at the cloned human α1A, α1B, or α1C subtypes.
Tissue samples from the proximal urethra of male humans and male and female rabbits, as well as tissue samples from both the proximal urethra and bladder neck of male and female dogs were cut into transverse strips (3×10 mm) and suspended under 0.5 g tension in Krebs' physiological buffer at 37° C. To determine agonist potency (pEC50 )and antagonist affinity constants (pKB), concentration-effect curves to the non-selective agonist phenylepherine were constructed in the absence and in the presence of increasing concentrations of the antagonist. Up to four sequential curves were constructed in each tissue. Antagonists were allowed to equilibrate for 1h before each concentration-effect curve, and the drugs were completely washed out in between successive curves. In each experiment, one tissue served as a "time control", in which no antagonist was added so that changes in tissue sensitivity could be assessed as a function of time. […] In instances in which a single concentration of antagonist was used, pKB values were determined by the equation: […], where CR is defined as the ratio of the agonist EC50 in the presence of the antagonist to that in the absence of the antagonist.

[4] = Table 3, agonists, read-out: pKi α2C (converted)

Structure (SMILES): C[C@H](N)[C@H](O)c1ccccc1 [(-)-norephedrine]
- Ki (human α2C adrenoceptor): 3.16 µM

Structure (SMILES): CN[C@@H](C)[C@H](O)c1ccccc1 [(-)-ephedrine]
- Ki (human α2C adrenoceptor): 7.94 µM

Structure (SMILES): CS(=O)(=O)Nc1c(O)ccc2c1CCCC2C1=NCCN1 (racemic) [Compound A-61603, (±)-N-[5-(4,5-Dihydro-1H-imidazol-2-yl)-2-hydroxy-5,6,7,8-tetra-hydronaphthalen-1-yl]methanesulfonamide]
- Ki [1]: 15.8 µM
- Ki [2]: 20 µM
- Ki (human 5-HT7 receptor; [3H]serotonin, read-out: pKi 5-HT7 (converted)): 5.01 µM
- Ki (human 5-HT1Dα receptor; [3H]serotonin, read-out: pKi 5-HT1Dα (converted)): 2.51 µM
- pEC50 Bladder Neck [3]: 6.8
- sensitivity of the contraction to prazosin, bladder neck [3]: highly sensitive to prazosin
- Ki (human α2C adrenoceptor; [4]): 0.631 µM

Structure (SMILES): COc1ccccc1N1CCN(CCCNc2c(C)c(=O)n(C)c(=O)n2C)CC1 [Compound 5-MU]
- pKB Dog BN Female ([3]; versus phenylephrine-induced contraction): 8.8

Structure (SMILES): COc1ccc(SC)c2c1C[C@@H]1[C@@H](C2)OCCN1C (relative stereo) [SDZ NVI-085, (±)-trans-4-Methyl-6-methoxy-9-thiomethoxy-3,4,4a, 5,10,10a-hexahydro-2H-naphtho[2,3-b][1,4]oxazine]
- Ki ([1]; read-out: pKi D5 (converted)): 20 µM
- Ki [2]: 7.94 µM
- Ki (human 5-HT7 receptor): 0.1 µM
- Ki (human 5-HT1Dα receptor): 0.0126 µM
- Ki (human α2C adrenoceptor; [4]): 0.794 µM

Structure (SMILES): COc1ccc(OC)c(C(O)CN)c1 (racemic) [ST-1059, (±)-2-Amino-1-(2, 5 dimethoxyphenyl) ethanol]
- Ki (human α2C adrenoceptor): 3.98 µM

Structure (SMILES): CNCCc1ccc(O)c(NS(C)(=O)=O)c1 [SK&F 102652]
- pKi D5 [1]: 4.8
- pKi D1 [2]: 5.0
- pKi 5-HT7 (human 5-HT7 receptor; [3H]serotonin): 5.3
- pKi 5-HT1Dα (human 5-HT1Dα receptor; [3H]serotonin): 5.9
- pEC50 Bladder Neck [3]: 5.7
- sensitivity of the contraction to prazosin, bladder neck [3]: highly sensitive to prazosin
